# Laboratory results reported in US11382919B2 (priority 2017, dated 2022).
# Tests used:
# [1] = tested on: phosphatidylserines (PtdS), Akt, PLSCR1 at the outer leaflet of the plasma membrane; assay: Confocal imaging of HSV-induced externalization of PtdS, Akt and PLSCR1 in non-permeabilized cells; format: cell-based, human
# HSV-2(G) = assay: Viral plaque assay with HSV-2(G); format: cell-based; conditions: 5 μM R5421 pretreatment, drug added back to overlay, plaques 48 h post-infection
# HSV-2(333ZAG) = format: cell-based; conditions: Vk2E6/E7 cells, R5421 pretreatment
# HSV-1(VP26GFP) = format: cell-based; conditions: Vk2E6/E7 cells, R5421 pretreatment
# HSV-1 = conditions: sporadic fatal encephalitis; optimal intravenous acyclovir therapy; cited from earlier work
# PLSCR1 = assay: Ionomycin activation of PLSCR1 (microscopy, co-immunoprecipitation/anti-phosphotyrosine blot); format: cell-based, human; conditions: CaSki cells; 1 μM ionomycin; 15 minutes; immunoblotting
# Description: (§1) FIG. 9A-9E. Ionomycin activates phospholipid scramblase leading to externalization of phosphatidylserines and Akt. (A). CaSki cells were treated with ionomycin (1 μM), HSV-2(G) (MOI 5 pfu/cell) or DMSO (0.1%) for 15 minutes and then fixed and stained with antibodies to PLSCR1 (polyclonal rabbit and Alexa 555, red), PtdS (monoclonal antibody and Alexa555, red), or Akt (polyclonal rabbit and secondary Alexa488, green) as indicated. Nuclei were stained blue with DAPI. Images are representative of results obtained from 2-3 independent experiments; bar=10 μm. Five fields were scanned and mean fluorescence intensity (MFI) per cell calculated using ImageJ software (NIH); results are mean+SEM and the asterisks indicate significant differences by ANOVA compared to DMSO control treated cells. (B). CaSki cells were treated as in A for 15 minutes and then cell lysates were harvested, incubated with a goat anti-PLSCR1 antibody and immune complexes precipitated with protein G-agarose and analyzed by Western blotting with a mouse anti-phosphotyrosine mAb (PY20) or mouse anti-PLSCR1 Ab. […] (C). […] Cell surface proteins were biotinylated and precipitated with streptavidin magnetic beads and the pellet analyzed by immunoblotting with rabbit anti-pAktThr^308 or mouse anti-pAktS^473 1 Abs. In parallel, cellular lysates were analyzed by immunoblotting for total cellular Akt (rabbit polyclonal Ab). […]
# Akt = assay: Ionomycin-induced Akt phosphorylation (biotinylation of cell surface proteins, immunoblot); format: cell-based, human; conditions: CaSki cells; 1 μM ionomycin; 5 or 15 minutes; immunoblotting
# Description: as §1
# CaSki and HaCAT cells = conditions: 3 independent experiments, FIG. 13
compound,measurement,setting,value
CC(=O)OCOC(=O)CN(CC(=O)OCOC(C)=O)c1ccccc1OCCOc1ccccc1N(CC(=O)OCOC(C)=O)CC(=O)OCOC(C)=O [BAPTA-AM],"number of cells with detectable PtdS, Akt, or PLSCR1 at the outer leaflet","[1]; 100 μM pretreatment, CaSki, […]",significantly reduced
"O=C(O)C(=O)O [R5421, ethanedioic acid]",reduction of HSV-2 plaque formation relative to DMSO treated controls,HSV-2(G); CaSki cells,88±7%
same,reduction of HSV-2 plaque formation relative to DMSO treated controls,HSV-2(G); HaCAT cells,71.7±7%
same,reduction of HSV-2 plaque formation relative to DMSO treated controls,HSV-2(G); VK2E6/E7 cells,95±6%
same,"infection, percentage of GFP positive cells 16 h pi",HSV-2(333ZAG),reduced
same,"infection, percentage of GFP positive cells 16 h pi",HSV-1(VP26GFP),reduced
same,PtdS and Akt externalization,[1],prevented PtdS and Akt externalization
same,viral induced externalization of PtdS,"[1]; CaSki cells, 5 μM R5421 15 min pretreatment, […]",prevented the viral induced externalization of PtdS
same,PtdS and Akt at the outer leaflet,"[1]; R5421 added 30 min pi, CaSki, […]",persistence of PtdS and Akt at the outer leaflet for up to 4 h pi
"Nc1nc2c(ncn2COCCO)c(=O)[nH]1 [acyclovir, 9-[2-hydroxymethyl]guanine]",mortality,HSV-1,14-19%
same,survivors who resume a normal lifestyle,HSV-1,< 50%
C[C@H](CCC(=O)O)C[C@H](C)C[C@H](C)C(=O)/C=C(\O)[C@H](C)C[C@H](C)C/C=C/[C@@H](C)[C@@H](O)[C@@H](C)[C@@H](O)C[C@@H]1CC[C@@](C)([C@H]2CC[C@@](C)([C@@H](C)O)O2)O1 [ionomycin],phosphorylated PLSCR1,PLSCR1,an increase in phosphorylated PLSCR1
same,phosphorylated Akt,Akt,phosphorylated Akt (both at the threonine 308 and serine 473 sites)
Nonoxynol-9 [N9],"cytotoxicity, cell viability as percentage of control",CaSki and HaCAT cells,kills cells
